According to patent US9156877B2, “17-hydroxy-17-pentafluorethyl-estra-4,9(10)-dien-11-benzylidene derivatives, methods for the production thereof and use thereof for treating diseases” (Bayer Intellectual Property GmbH, priority 2009, dated 2015):
≈ marks a conversion by molar mass, not a printed value.

What was measured:
[1] = Metabolic stability in rat liver microsomes; format: in vitro ADME; conditions: for Predicted clearance [l/h/kg] Rat: well-stirred model
Protocol: (§1) Determination of Metabolic Stability in Human and Rat Liver Microsomes
(§2) The incubations were conducted with 2.4 ml of HLM solution (protein content 0.5 mg/ml), 30 μl of the test compound (final concentration 1 μM) and 0.6 ml of the cofactor mixture (═NADPH-generating system composed of 3 IU glucose-6-phosphate dehydrogenase, 14.6 mg glucose-6-phosphate, 1.2 mg NADP) at 37° C. in 100 mM phosphate buffer at pH 7.4. Samples were taken at 6 time points (2-60 min) and precipitated with an equal volume of methanol, and the recovery of the test substances used in the supernatant was determined by LC-MS/MS analysis. The half-life of substance degradation determined therefrom was used to calculate what is called the intrinsic clearance of the substance in the liver microsome preparation. […] In addition, under the assumptions that (i) absorption of the test substance is 100%, and (ii) the first pass is completely reflected by liver microsome metabolism, a maximum oral bioavailability (Fmax) was calculated.

[2] = Metabolic stability in human liver microsomes; format: in vitro ADME; conditions: for Predicted clearance [l/h/kg] Human: 1 μM, well-stirred model
Protocol: as §1
Isolated human liver microsomes (HLM) were used to assess the metabolic stability of compounds of general formula I.
as §2

[3] = target: T1, human progesterone receptor A (Homo sapiens, UniProt P06401); experiment: Progesterone receptor-antagonistic action in stably transfected SK-N-MC cells with MMTV-LUC reporter (PR-A); format: cell-based; conditions: antagonistic potency against 0.1 nmol/l promegestone, 24 hours, luciferase
T1 construct: expressed in transfected cells; host or cells: SK-N-MC human neuroblastoma cells, stably transfected with pRChPR-A-neo and pMMTV-LUC
T1 sequence (P06401 1-769 isoform P06401-2): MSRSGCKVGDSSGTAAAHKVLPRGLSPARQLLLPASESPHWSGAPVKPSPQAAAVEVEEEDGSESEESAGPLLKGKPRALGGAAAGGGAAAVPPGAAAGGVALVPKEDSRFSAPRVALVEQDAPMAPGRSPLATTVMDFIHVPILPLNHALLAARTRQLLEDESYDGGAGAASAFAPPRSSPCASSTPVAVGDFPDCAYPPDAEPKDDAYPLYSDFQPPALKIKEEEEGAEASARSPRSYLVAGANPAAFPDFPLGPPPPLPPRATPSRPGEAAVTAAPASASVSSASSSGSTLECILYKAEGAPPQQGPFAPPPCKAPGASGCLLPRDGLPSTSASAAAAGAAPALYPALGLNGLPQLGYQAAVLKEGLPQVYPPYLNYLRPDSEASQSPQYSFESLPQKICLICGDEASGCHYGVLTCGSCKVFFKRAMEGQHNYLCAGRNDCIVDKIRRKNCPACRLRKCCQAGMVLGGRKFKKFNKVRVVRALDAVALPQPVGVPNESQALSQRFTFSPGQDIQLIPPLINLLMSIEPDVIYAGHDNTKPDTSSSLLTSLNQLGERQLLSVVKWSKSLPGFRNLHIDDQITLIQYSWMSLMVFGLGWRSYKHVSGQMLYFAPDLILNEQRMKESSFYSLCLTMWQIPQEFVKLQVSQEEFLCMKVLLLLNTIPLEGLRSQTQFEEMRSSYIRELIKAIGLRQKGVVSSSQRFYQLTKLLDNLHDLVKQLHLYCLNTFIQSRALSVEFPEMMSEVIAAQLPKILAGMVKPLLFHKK
In short: (§3)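 SK-N-MC neuroblastoma cells stably expressing human PR-A or PR-B plus MMTV-LUC reporter, treated 24 h with test compound (0.01 nmol/l–[…]). Antagonist mode used co-treatment with 0.1 nmol/l promegestone; luciferase in lysates read as RLU, expressed as % efficacy and IC50/EC50.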

[4] = target: T2, human progesterone receptor B (Homo sapiens, UniProt P06401); experiment: Progesterone receptor-antagonistic action in stably transfected SK-N-MC cells with MMTV-LUC reporter (PR-B); format: cell-based; conditions: antagonistic potency against 0.1 nmol/l promegestone, 24 hours, luciferase
T2 construct: expressed in transfected cells; host or cells: SK-N-MC human neuroblastoma cells, stably transfected with pRChPR-B-neo and pMMTV-LUC
T2 sequence (P06401 1-933): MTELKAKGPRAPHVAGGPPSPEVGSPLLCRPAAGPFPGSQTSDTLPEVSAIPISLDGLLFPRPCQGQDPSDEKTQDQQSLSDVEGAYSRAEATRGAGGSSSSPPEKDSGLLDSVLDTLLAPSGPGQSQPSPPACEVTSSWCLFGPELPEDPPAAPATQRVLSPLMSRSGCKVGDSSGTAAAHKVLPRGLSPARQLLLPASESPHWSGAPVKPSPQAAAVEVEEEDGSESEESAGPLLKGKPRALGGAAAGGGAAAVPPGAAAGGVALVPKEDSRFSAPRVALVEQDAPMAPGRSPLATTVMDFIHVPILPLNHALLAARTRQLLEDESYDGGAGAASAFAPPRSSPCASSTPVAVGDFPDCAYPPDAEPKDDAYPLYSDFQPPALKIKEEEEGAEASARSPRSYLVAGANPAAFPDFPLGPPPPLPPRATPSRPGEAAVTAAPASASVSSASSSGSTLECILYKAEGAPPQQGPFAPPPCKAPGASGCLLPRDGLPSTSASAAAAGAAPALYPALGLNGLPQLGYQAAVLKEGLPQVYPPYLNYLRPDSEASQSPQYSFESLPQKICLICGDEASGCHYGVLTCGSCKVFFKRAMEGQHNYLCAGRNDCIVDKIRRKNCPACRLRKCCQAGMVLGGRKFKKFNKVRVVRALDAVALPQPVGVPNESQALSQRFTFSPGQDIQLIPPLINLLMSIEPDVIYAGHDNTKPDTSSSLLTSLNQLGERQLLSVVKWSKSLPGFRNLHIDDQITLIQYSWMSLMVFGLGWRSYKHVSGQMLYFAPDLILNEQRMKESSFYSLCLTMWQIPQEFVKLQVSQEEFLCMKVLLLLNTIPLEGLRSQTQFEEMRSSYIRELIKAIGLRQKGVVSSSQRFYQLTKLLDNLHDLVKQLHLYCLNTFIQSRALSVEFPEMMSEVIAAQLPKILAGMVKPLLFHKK
In short: as §3

[5] = Solubility in aqueous medium at pH 7.4; format: physicochemical; conditions: for solubility: aqueous medium, pH 7.4, aqueous buffer
Excerpt: In addition, some compounds have an unusually good solubility, for this active ingredient class, in aqueous medium under physiological conditions (Table 2).

Predicted Fmax [%] (maximum oral bioavailability) Rat [1] | Predicted clearance [l/h/kg] Rat [1] | Predicted Fmax [%] (maximum oral bioavailability) Human [2] | Predicted clearance [l/h/kg] Human [2] | IC50 [3] | IC50 [4] | solubility [5] | solubility (in words) ([5]; aqueous medium under physiological conditions) | SMILES
79% | 0.9 L/h/kg | 26% | 0.98 L/h/kg | 0.2 nM | 0.1 nM | 10 µg/mL (≈ 17.5 µM) | – | C[C@]12C[C@H](c3ccc(/C=C/CC(C#N)C#N)cc3)C3=C4CCC(=O)C=C4CCC3C1CC[C@@]2(O)C(F)(F)C(F)(F)F (stereo partly drawn) [Example 27, 2-{(E)-3-[4-((8S,11R,13S,14S,17S)-17-hydroxy-13-methyl-3-oxo-17-pentafluoroethyl-2,3,6,7,8,11,12,13,14,15,16,17-dodecahydro-1H-cyclopenta[a]phenanthren-11-yl)phenyl]allyl}malonitrile]
83% | 0.7 L/h/kg | 84% | 0.21 L/h/kg | 0.16 nM | 0.12 nM | 9 µg/mL (≈ 15.8 µM) | – | C[C@]12C[C@H](c3ccc(/C=C/c4ccccn4)cc3)C3=C4CCC(=O)C=C4CC[C@H]3[C@@H]1CC[C@@]2(O)C(F)(F)C(F)(F)F [Example 6, (8S,11R,13S,14S,17S)-17-hydroxy-13-methyl-17-pentafluoroethyl-11-[4-((E)-2-pyridin-2-ylvinyl)phenyl]-1,2,6,7,8,11,12,13,14,15,16,17-dodecahydrocyclopenta[a]phenanthren-3-one]
57% | 1.8 L/h/kg | 36% | 0.84 L/h/kg | 0.01 nM | 0.02 nM | 6 µg/mL | – | C=CC=Cc1ccc([C@H]2C[C@@]3(C)C(CC[C@@]3(O)C(F)(F)C(F)(F)F)C3CCC4=CC(=O)CCC4=C32)cc1 (mixture of isomers) [Example 18, (8S,11R,13S,14S,17S)-11-[((E/Z)-4-buta-1,3-dienyl)phenyl]-17-hydroxy-13-methyl-17-pentafluoroethyl-1,2,6,7,8,11,12,13,14,15,16,17-dodecahydrocyclopenta[a]phenanthren-3-one]
76% | 1.0 L/h/kg | 68% | 0.43 L/h/kg | 0.055 nM | 0.09 nM | 8 µg/mL (≈ 13.6 µM) | – | Cc1nc(/C=C/c2ccc([C@H]3C[C@@]4(C)[C@@H](CC[C@@]4(O)C(F)(F)C(F)(F)F)[C@@H]4CCC5=CC(=O)CCC5=C43)cc2)cs1 [Example 9, (8S,11R,13S,14S,17S)-17-hydroxy-13-methyl-11-{4-[(E)-2-(2-methylthiazol-4-yl)vinyl]phenyl}-17-pentafluoroethyl-1,2,6,7,8,11,12,13,14,15,16,17-dodecahydrocyclopenta[a]phenanthren-3-one]
52% | 2.0 L/h/kg | 23% | 1.02 L/h/kg | 0.1 nM | 0.3 nM | 10 µg/mL (≈ 18.7 µM) | – | CC(=O)/C=C/c1ccc([C@H]2C[C@@]3(C)[C@@H](CC[C@@]3(O)C(F)(F)C(F)(F)F)[C@@H]3CCC4=CC(=O)CCC4=C32)cc1 [Example 16, (8S,11R,13S,14S,17S)-17-hydroxy-13-methyl-11-[4-((E)-3-oxobut-1-enyl)phenyl]-17-pentafluoroethyl-1,2,6,7,8,11,12,13,14,15,16,17-dodecahydrocyclopenta[a]phenanthren-3-one]
92% | 0.3 L/h/kg | 87% | 0.18 L/h/kg | 0.012 nM | 0.077 nM | 7 µg/mL (≈ 12.3 µM) | – | C[C@]12C[C@H](c3ccc(/C=C/c4ccncc4)cc3)C3=C4CCC(=O)C=C4CC[C@H]3[C@@H]1CC[C@@]2(O)C(F)(F)C(F)(F)F [Example 8, (8S,11R,13S,14S,17S)-17-hydroxy-13-methyl-17-pentafluoroethyl-11-[4-((E)-2-pyridin-4-ylvinyl)phenyl]-1,2,6,7,8,11,12,13,14,15,16,17-dodecahydrocyclopenta[a]phenanthren-3-one]
69% | 1.3 L/h/kg | 69% | 0.41 L/h/kg | 0.14 nM | 0.25 nM | 11 µg/mL (≈ 21.1 µM) | – | C[C@]12C[C@H](c3ccc(/C=C/CO)cc3)C3=C4CCC(=O)C=C4CC[C@H]3[C@@H]1CC[C@@]2(O)C(F)(F)C(F)(F)F [Example 2, (8S,11R,13S,14S,17S)-17-hydroxy-11-[4-((E)-3-hydroxypropenyl)phenyl]-13-methyl-17-pentafluoroethyl-1,2,6,7,8,11,12,13,14,15,16,17-dodecahydrocyclopenta[a]phenanthren-3-one]
97% | 0.1 L/h/kg | 74% | 0.35 L/h/kg | 0.06 nM | 0.1 nM | 120 µg/mL (≈ 196 µM) | improved | C[C@]12C[C@H](c3ccc(/C=C/c4cccc(C(=O)O)c4)cc3)C3=C4CCC(=O)C=C4CC[C@H]3[C@@H]1CC[C@@]2(O)C(F)(F)C(F)(F)F [Example 28, 3-{(E)-2-[4-((8S,11R,13S,14S,17S)-17-hydroxy-13-methyl-3-oxo-17-pentafluoroethyl-2,3,6,7,8,11,12,13,14,15,16,17-dodecahydro-1H-cyclopenta[a]phenanthren-11-yl)phenyl]vinyl}benzoic acid]
